Measurements as given in PMC4559766 (Scientific Reports, 2015).
“And” between values parts separate entries of the source, which are not always exact repeats. Identical values can stand only once.

Legend:
[1] = Blood biochemical indexes of liver and kidney function in tumor-bearing nude mice; settings: serum at end of 4 weeks of administration, n = 6
Experimental: The blood was collected and centrifuged at the end of administration for 4 weeks. The serum was placed into eppendorf (EP) tube and immediately sent to the First Affiliated Hospital of Jinan University where several tests closely related to liver/kidney function were performed, and the blood biochemical indexes AST, ALT, AST/ALT, ALB, GLB, ALB/GLB, DBILI, IBILI, TBILI, BUN and CREA were obtained.

Du145 cells [2] = test: Cell cycle of Du145 cells, PI single staining-flow cytometry; format: cell-based, human; settings: 20 nM, 48 hours
Experimental: (§1) Du145 cells in logarithmic growth phase were seeded into 6-well plates with number of 3 × 10^5 cells per well.

Du145 transplanted tumor [3] = test: Subcutaneous Du145 transplanted tumor in nude mice; format: in vivo, BALB/c-nu/nu nude mice; settings: tail vein once a day for 4 weeks; 0.1 ml of 40 nM RMP16 or P16, estramustine 60 mg/kg; by average tumor weight versus NaCl group; n = 6
Experimental: Thirty male 4-week-old BALB/c-nu/nu nude mice (17–19 g), were divided into five groups. CK group (blank control) was the mice which were not inoculated Du145 cells, and the remaining four groups received inoculation of Du145 cells. 0.2 ml of Du145 cells suspension with the concentration of 1.5 × 10^7 cells/ml was injected subcutaneously into the right side of back of nude mice. […] The weights and volumes of tumors in different groups were measured once every four days, and tumor growth curves for each group were plotted.

Du145 cells [4] = test: Apoptosis of Du145 cells, Annexin V-FITC/PI double staining-flow cytometry; format: cell-based, human
Experimental: as §1

[5] = target: T1, recombinant human TNFRI (hTNFRI) (Homo sapiens, UniProt P19438); test: SPR binding affinity to hTNFR I (BIAcore 3000); settings: SPR and ITC
T1 construct: purchased Sino Biological Inc
T1 sequence (P19438 30-211 limits assumed): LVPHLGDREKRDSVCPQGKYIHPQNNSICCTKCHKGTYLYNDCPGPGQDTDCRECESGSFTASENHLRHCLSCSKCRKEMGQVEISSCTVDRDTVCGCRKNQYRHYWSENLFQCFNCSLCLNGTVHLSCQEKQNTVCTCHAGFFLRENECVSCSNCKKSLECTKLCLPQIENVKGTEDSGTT
Source text: (§2) BIAcore kinetic evaluation Ver. 4.1 software and Microcal ORIGIN Ver. 5.0 software were respectively used to determine the dissociation constant (KD).

Du145 transplanted tumor [6] = test: Microvessel density of removed tumors (anti-CD31 immunohistochemistry, Weidner method); format: in vivo, BALB/c-nu/nu nude mice; settings: tumors removed after 4 weeks of administration, anti-CD31, n = 6
Experimental: (§3) Four weeks after administration, the mice were executed, and the tumors of different groups were removed and fixed with 10% neutral formalin or 2.5% glutaraldehyde. The fixed tumor tissue slides were subjected to Hematoxylin-eosin (HE) staining, immunohistochemistry in which anti-CD31 antibody and biotin-labeled IgG were respectively used as the first and second antibody, and TEM analysis. The microvessel densitied (MVD) in different tumor tissues was calculated using the Weidner method.

[7] = target: T2, human TNFRI of ML-la cells (Homo sapiens, UniProt P19438); test: Competition receptor binding assay, [125I]TNF α displacement from TNFRI; design: unit not given beside the values
T2 construct: ML-la cells (a human myelomonoblastic leukemia cell line, 1 × 10^6 cells/well) were preincubated with either anti-p60 antibody or anti-p80 antibody; endogenous in cells; host or cells: ML-la (ML-1a) human myelomonoblastic leukemia cells
T2 sequence (P19438 30-455): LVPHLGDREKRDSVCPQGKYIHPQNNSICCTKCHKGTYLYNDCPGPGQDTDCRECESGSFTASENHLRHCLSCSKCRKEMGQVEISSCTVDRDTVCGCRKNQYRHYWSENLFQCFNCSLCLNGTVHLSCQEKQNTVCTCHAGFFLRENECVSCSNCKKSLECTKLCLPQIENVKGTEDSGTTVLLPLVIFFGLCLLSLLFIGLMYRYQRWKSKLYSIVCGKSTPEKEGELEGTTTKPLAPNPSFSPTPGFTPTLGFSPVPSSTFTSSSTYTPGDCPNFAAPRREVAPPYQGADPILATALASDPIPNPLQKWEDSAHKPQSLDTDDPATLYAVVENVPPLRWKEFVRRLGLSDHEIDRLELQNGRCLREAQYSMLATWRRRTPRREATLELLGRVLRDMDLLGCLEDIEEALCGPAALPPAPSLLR
Experimental: Free iodine was removed by gel filtration on a G-25 column equilibrated with phosphate-buffered saline containing 0.1% gelatin. […] Thereafter cells were washed three times with 150 μl of ice-cold phosphate-buffered saline containing 0.1% bovine serum albumin. Then each well was cut from the plate with a scissors, and cell-bound radioactivity was determined by an Apec-Series […] (ICN Biomedicals, Inc., Costa Mesa, CA)[51].

[8] = target: T3, recombinant human TNFRII (hTNFRII) (Homo sapiens, UniProt P20333); test: SPR binding affinity to hTNFR II (BIAcore 3000); settings: SPR and ITC
T3 construct: purchased Sino Biological Inc
T3 sequence (P20333 23-257 limits assumed): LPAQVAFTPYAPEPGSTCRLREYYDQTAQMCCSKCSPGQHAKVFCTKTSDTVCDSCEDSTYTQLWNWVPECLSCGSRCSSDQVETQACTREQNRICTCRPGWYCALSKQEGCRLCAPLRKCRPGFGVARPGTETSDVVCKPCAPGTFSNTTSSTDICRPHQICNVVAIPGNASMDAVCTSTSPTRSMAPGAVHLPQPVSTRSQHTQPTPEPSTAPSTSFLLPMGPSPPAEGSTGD
Source text: as §2

[9] = test system: human mammary non-tumorigenic epithelial cells MCF10A; test: Proliferation of non-tumorigenic epithelial cells MCF10A (Cell Counting Kit-8); format: cell-based; settings: 20–900 nM, 48 hours
Experimental: (§4) Du145, Raji, K562, Eca109, HeLa, MCF-7, MDA-MB-231 cells or non-tumorigenic epithelial cells MCF10A and HUVEC cells in logarithmic growth phase were respectively seeded into 96-well plates with the number of 8000 cells per well and incubated for 24 hours. […] The cells were counted with Cell Counting Kit-8. The IC50 was calculated using SPSS 17.0-Logit.

Du145 transplanted tumor [10] = test: TEM of removed tumors, cells with typical apoptosis characteristic; format: in vivo, BALB/c-nu/nu nude mice; settings: TEM of tumors removed after 4 weeks of administration
Experimental: as §3

Factor Xa = test: In vitro factor Xa enzyme digestion half-life; format: in vitro ADME; settings: FXa 0.112 unit, 37 °C, 0-48 hours, HPLC-ESI-MS
Experimental: FXa (0.112 unit) were added into the mixture. After being thoroughly mixed, the mixture was divided into six aliquots to six PCR tubes and hydrolyzed at 37 °C in dark for 48 hours. Samples were respectively obtained at different time points (0, 12, 24, 36 and 48 hours) and each of samples was boiled for 5 minutes to quench the reaction and centrifuged.

[11] = test system: chick chorioallantoic membrane; test: Chick chorioallantoic membrane model of angiogenesis; format: in vivo; settings: 72 hours at 37 °C
Experimental: Thirty fertilized chick embryos were randomly divided into five groups and incubated in the thermostatic incubator at 37 °C for six days (blunt end up). Drill a small window about 1 cm × 1 cm on the eggshell on the gas chamber side of chick embryo, meanwhile, also drill a small hole at the gas chamber, so that an artificial gas chamber was formed at the window. After removing the shell and shell membrane, the chicken chorioallantoic membrane (CAM) was exposed. […] The window was sealed with transparent tape, and chick embryos were incubated at 37 °C for 72 hours in thermostatic incubator.

HUVEC cells = test: Proliferation inhibition of HUVEC cells (Cell Counting Kit-8); format: cell-based, human; settings: 20 nM, 48 hours
Experimental: as §4

[12] = Pharmacokinetics in BALB/c mice after intravenous injection
Experimental: Blood samples were collected by eye bleed from three mice at per time point prior to dosing and from 0.5 to 24 hours postdosing, and the plasma portion was analyzed by using an electrospray ionization, LC/MS/MS method described previously[48]. […] Tri (2-carboxyethyl) phosphine hydrochloride (TCEP) was used as a reducing agent to enhance peptide recovery and was added to all samples at a final concentration of 2 mM. After removing the plasma proteins through adding acetonitrile and centrifugation, the supernatant was transferred to another 96-well plate. Samples were analyzed by LC/MS/MS. Pharmacokinetic parameters were fitted to a two-compartment elimination model, and drug exposure (AUC), elimination half-life (t1⁄2), volume of distribution (Vd) and the clearance (CL) were calculated using WinNonlin Ver.

[13] = BALB/c, mouse, plasma, iv, 5 mg/kg

CC[C@H](C)[C@H](NC(=O)[C@H](CCCNC(=N)N)NC(=O)[C@H](CO)NC(=O)[C@@H](NC(=O)[C@@H](NC(=O)[C@H](Cc1c[nH]cn1)NC(=O)[C@@H](NC(=O)[C@H](CC(C)C)NC(=O)[C@H](CC(C)C)NC(=O)[C@H](CCCNC(=N)N)NC(=O)CNC(=O)[C@H](CCC(=O)O)NC(=O)[C@@H](NC(=O)[C@H](Cc1c[nH]c2ccccc12)NC(=O)[C@H](CO)NC(=O)[C@H](CO)NC(=O)[C@@H]1CCCN1C(=O)[C@H](CCCNC(=N)N)NC(=O)[C@H](CCC(N)=O)NC(=O)[C@H](Cc1c[nH]c2ccccc12)NC(=O)[C@@H](N)CCSC)[C@@H](C)CC)[C@@H](C)O)[C@@H](C)O)[C@@H](C)CC)C(=O)N[C@@H](C)C(=O)N[C@H](C(=O)N[C@@H](CO)C(=O)N[C@@H](Cc1ccc(O)cc1)C(=O)N[C@@H](CCC(N)=O)C(=O)N[C@H](C(=O)N[C@@H](CCCCN)C(=O)N[C@H](C(=O)N[C@@H](CC(N)=O)C(=O)N[C@@H](CC(C)C)C(=O)N[C@@H](CC(C)C)C(=O)O)C(C)C)[C@@H](C)O)C(C)C [RMP16]
ALB [1]: 17.2 ± 0.2 g/L
ALT [1]: 100.5 ± 20.5 U/L
AST [1]: 154 ± 28 U/L
CREA [1]: 10.5 ± 0.5 µM
DBILI [1]: 3 ± 0.7 µM
GLB [1]: 41.7 ± 1 g/L
IBILI [1]: 9.25 ± 0.55 µM
TBILI [1]: 12.25 ± 0.15 µM
increase of Du145 cells remaining in G0/G1 phase (Du145 cells [2]): 13.1%
reduction of Du145 cells remaining in S phase and G2/M phase (Du145 cells [2]): 12.9%
tumor inhibition rate (Du145 transplanted tumor [3]): ~80% and 78.11%
increase of apoptosis rate for Du145 cells (Du145 cells [4]; 20 nM, 48 h, Annexin V-FITC/PI flow cytometry, versus PBS): 14.21%
cell pro-apoptotic effect after TNFRI blocking (Du145 cells [4]; Du145 cells pre-incubated with 100 nM H398 (TNFRI-selective inhibitor) for 30 minutes at 37 °C before 20 nM RMP16): disappeared
binding affinity for hTNFRI higher than that for hTNFRII [5]: ~410 times
bound less strongly to hTNFRI than did TNF α [5]: ~4.5 times
microvessel density (MVD) (Du145 transplanted tumor [6]): 6.4 ± 0.62
IC50 of displacing [125I]TNF α from TNFRI as multiple of that from TNFRII [7]: 1/400
bound less strongly to hTNFRII than did TNF α [8]: ~6600 times
effect on proliferation of MCF10A cells [9]: not significant effect
percent of the tumor cells with typical apoptosis characteristic (Du145 transplanted tumor [10]): about 79.6%
factor Xa enzyme digestion half-life in the presence of HSA (Factor Xa; 10 μM peptide in PBS with 2 μM HSA): 15.83 h
half-life at 10 μM (Factor Xa; factor Xa (FXa) enzyme digestion in PBS without HSA, 10 μM peptide in PBS without HSA, read-out: factor Xa enzyme digestion half-life in the absence of HSA (converted)): 9.72 h
vessel branch points, dose of 2 μg ([11]; 2 μg on filter membrane, n = 6): 28.02 ± 1.37
inhibition rate of angiogenesis, 2 μg ([11]; 2 μg on filter membrane, versus NaCl group): 54.13 ± 5.13%
vessel branch points, dose of 4 μg ([11]; 4 μg on filter membrane, n = 6): 12.31 ± 2.95
inhibition rate of angiogenesis, 4 μg ([11]; 4 μg on filter membrane, versus NaCl group): 79.94 ± 4.64%
effect on proliferation of HUVEC (HUVEC cells): significantly inhibited the proliferation
AUC [12, 13]: 1360 µg·h/mL
Vd [12, 13]: 0.0695 L/kg
clearance [12, 13]: 3.68 mL/h/kg
half-life [12, 13]: 13.1 h
half-life in mice ([12]; in mice, as stated in abstract): 13.11 h
